{"source": "patent US6537804B1", "about": "“BCR-ABL directed compositions and uses for inhibiting Philadelphia chromesome stimulated cell growth” (Board of Regents, The University of Texas Systems, priority 1995, dated 2003)", "type_in_all_cases": "cell-based, human", "key": {"[1]": {"system": "M3.16 cells", "test": "Growth of M3.16 cells, trypan blue exclusion", "conditions": "DMEM 10% FCS, 10 μM at day 1, half at day 5, light microscopy at day 9", "protocol": "FIG. 20B, M3.16 cells cultured in 10% FCS containing DMEM media with either the 3′ BCR antisense oligonucleotides (open squares) or the sense oligonucleotide (closed squares) as above. Oligonucleotides were added at day 1 at a final concentration of 10 μM and added again at day 5 at half of the initial concentration. Cell viability was determined by trypan blue dye exclusion. The data are the mean +/−SEM of a triplicate analysis.\nFor this particular study, the cell number was followed up for a longer period of time (11 days) and oligonucleotides were added again at day 5 at half of the initial concentration."}, "[2]": {"system": "c-Abl", "test": "Western blotting with anti-Abl monoclonal antibody 8E9 of treated SUP-B15 cells", "protocol": "(§1) SUP-B15 cells express p185 BCR-ABL; they were derived from a patient with Philadelphia chromosome-positive ALL. One-tenth of the cells harvested in the study shown in FIG. 13 was assayed for Bcr-Abl expression by Western blotting with the anti-Abl monoclonal antibody 8E9. […] Similarly, the Abl protein was reduced about 26% in the anti-sense treated culture compared to sense. Quantitation was done by a densitometer SI unit (Molecular Dynamics).\nUsing c-Abl as an internal control, the actual reduction of p160 BCR in B15 cells by the antisense treatment is about 10 fold."}, "[3]": {"system": "SUP-B15 cells", "test": "Growth of SUP-B15 cells, trypan blue exclusion", "protocol": "FIG. 20A, B15 cells cultured in 20% FCS containing RPMI media with either the 3′ BCR antisense oligonucleotides (10 μM at day 1) (open squares) or the sense oligonucleotides (10 μM at day 1) (closed squares).\nThe biological effects of the 3′ BCR antisense oligonucleotide treatment were tested on SUP-B15 cells. SUP-B15 cells were seeded in triplicate wells at a concentration of 1.6×10^5 cells/ml in a 200 μl volume of RPMI media supplemented with 20% FCS. Oligonucleotides were added to the cells at a final concentration of 10 μM. Cell number was monitored by trypan blue exclusion assay for 9 days. The mean cell number of the triplicates was determined each day (FIG. 20A)."}, "[4]": {"system": "SUP-B15 cells", "test": "Survival of SUP-B15 cells in low serum, trypan blue exclusion", "conditions": "5% FCS, 10 μM", "protocol": "SUP-B15 cells (2×10^6 cells) were maintained in RPMI medium containing 5% fetal calf serum. Cells will not grow under these conditions and will slowly die off since cell growth requires 20% serum. Cells were treated with the 3′ BCR anti-sense (open squares) or sense oligo (closed squares) at a concentration of 10 μM. The number of viable cells was determined by trypan blue dye exclusion. The data are expressed as the mean (+/−SEM) of three replicates.\nB15 cells were cultured in a low serum containing media [5% fetal calf serum (FCS)]. These cells normally require 20% FCS. A batch of B15 cells (2.2×10^6/ml) was cultured in RPMI containing 5% FCS. 200 μl of this suspension was seeded into each well of a 96 well culture plate. Either the antisense or sense oligonucleotides were added to the culture at a final concentration of 10 μM. The cell numbers were determined as an average of the triplicates and plotted in FIG. 14."}, "[5]": {"system": "P185 BCR-ABL", "test": "Western blotting with anti-Abl monoclonal antibody 8E9 of treated SUP-B15 cells", "protocol": "as §1\n(§2) In this study, equal amounts of the sense and the antisense oligonucleotide treated B15 cells were analyzed."}, "[6]": {"system": "p160 BCR", "test": "Immunokinase assay with anti-BCR (1256-1271) on oligonucleotide treated SUP-B15 cells", "protocol": "(§3) SUP B15 cells were treated with anti-sense BCR oligonucleotides as in FIG. 12. Equal amounts of cells processed from sense and antisense treated cultures were harvested at day 7. Cells were analyzed for Bcr protein and Bcr/Bcr-Abl complexes by assaying with an antibody to the carboxy terminal of Bcr, as described (Liu et al., 1993). Lane 1 is an SDS gel pattern of the sense treated culture; lane 2 is the assay performed with peptide-blocked antibody. Lane 3 is the pattern from anti-sense treated culture; lane 4 is the peptide-blocked control. […] Quantitation measurements indicate that the level of Bcr protein was reduced about 10-fold by antisense treatment compared to sense, when normalized for the amount of Abl protein in the cultures.\nThe effects of the sense and antisense 3′ BCR oligonucleotides were tested on BCR expression in SUP-B15 cells, a cell line derived from a Ph^1-positive acute lymphocytic leukemia patient that expresses p185 BCR-ABL. Immunokinase assays were performed with anti-BCR (1256-1271) peptide antibody (the antibody detects Bcr proteins but not Bcr-Abl proteins) to determine the level of BCR expression in B15 cells after 7 days treatment with either the sense or antisense 3′ BCR oligonucleotides (FIG. 13, lanes 1 and 3).\n(§4) These antibodies detect Bcr directly but not Bcr-Abl protein. However because Bcr can complex with Bcr-Abl, this assay also detects Bcr-Abl which is co-precipitated along with Bcr.\nIncubation of these immune complexes with labeled ATP causes tyrosine phosphorylation of Bcr by Bcr-Abl and autophosphorylation of Bcr-Abl (Liu et al., 1993). […] Using Abl Western blot data as an internal control for mass, the specific reduction in Bcr is estimated to be about 10-fold."}, "[7]": {"system": "p160 BCR/p185 BCR-ABL complexes", "test": "Co-precipitated Bcr-Abl in anti-BCR (1256-1271) immunokinase assay of treated SUP-B15 cells", "conditions": "antisense compared to sense treated", "protocol": "as §3, §2, §4"}}}
{"substance": "5′ATCATCACCGACACATCC 3′ (phosphotriester linkages at both ends, further chemistry not given here) [3′ BCR antisense oligonucleotide]", "values": [{"measurement": "Confluence compared to sense treated cells", "setting": "[1]", "result": "more confluent"}, {"measurement": "Reduction in Abl protein, anti-sense compared to sense", "setting": "[2]; Western blot 8E9, densitometer", "result": "about 26%"}, {"measurement": "Reduction of c-Abl level, antisense versus sense treated cells", "setting": "[2]; quantitation of FIG. 12", "result": "~1.35", "unit": "fold"}, {"measurement": "Growth density compared to sense oligonucleotide treatment", "setting": "[3]; RPMI 20% FCS, 10 μM, 9 days", "result": "sustained a higher growth density"}, {"measurement": "Live cells relative to sense treated cultures", "setting": "[3]; seven days in culture", "result": "twice"}, {"measurement": "Survival compared to sense oligonucleotide treatment", "setting": "[4]", "result": "increased survival"}, {"measurement": "Number of viable cells relative to sense-treated cells", "setting": "[4]; after five days of treatment", "result": "about twice"}, {"measurement": "Reduction in Bcr-Abl protein, anti-sense compared to sense", "setting": "[5]; Western blot 8E9, densitometer", "result": 35, "unit": "%"}, {"measurement": "Expression of p185 BCR-ABL", "setting": "[5]; Western blot with anti-Abl monoclonal antibody", "result": "not significantly altered"}, {"measurement": "Reduction of Bcr-Abl level, antisense versus sense treated cells", "setting": "[5]; quantitation of FIG. 12", "result": "about 1.6 fold"}, {"measurement": "Level of BCR protein, antisense compared with sense treated cells", "setting": "[6]; 7 days treatment", "result": "much lower levels"}, {"measurement": "Reduction of p160 BCR normalized for the amount of Abl protein (c-Abl as internal control)", "setting": "[6]; day 7, antisense compared to sense", "result": "about 10 fold"}, {"measurement": "Reduction of p160 BCR, antisense versus sense treated cells", "setting": "[6]; day 7, densitometer quantitation of FIG. 13 lanes 1 and 3", "result": "about 14 times"}, {"measurement": "Reduction of the amount of Bcr by anti-sense", "setting": "[6]; seven days, phosphorimager analyses", "result": "about 14 fold"}, {"measurement": "Amount of p160 BCR/p185 BCR-ABL complexes", "setting": "[7]", "result": "reduced"}]}
